From patent US12215116B2, “Arginase inhibitors and methods of use” (Merck Sharp & Dohme LLC, priority 2018, dated 2025)
pIC50: −log10 of the molar value.

Target: T1, Arginase (ARG1 enzyme) (Homo sapiens, UniProt P05089)
T1 construct: made in house; host or cells: Escherichia coli
T1 sequence (P05089 1-322): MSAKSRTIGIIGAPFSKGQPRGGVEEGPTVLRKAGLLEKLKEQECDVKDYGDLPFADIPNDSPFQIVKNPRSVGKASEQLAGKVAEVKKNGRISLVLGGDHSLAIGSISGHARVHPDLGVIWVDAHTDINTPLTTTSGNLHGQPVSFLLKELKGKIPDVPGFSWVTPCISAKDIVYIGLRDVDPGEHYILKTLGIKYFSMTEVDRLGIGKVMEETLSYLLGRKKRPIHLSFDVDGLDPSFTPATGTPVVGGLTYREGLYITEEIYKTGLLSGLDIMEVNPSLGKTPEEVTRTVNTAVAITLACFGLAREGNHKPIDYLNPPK
Assay: Arginase Thioornithine Generating Assay (TOGA)
Format: biochemical
Conditions: 1.88 nM arginase, thioarginine substrate, fluorescence readout
Method: Arginase Thioornithine Generating Assay (TOGA)
Compounds were serially diluted in ten 3-fold steps in DMSO starting from 10 mM DMSO stocks. Compound dilutions or DMSO alone were then dispensed from the dilution plate into a Greiner black 384-well assay plate (catalog #781086) using an Echo 555 acoustic liquid handler (Labcyte).
Arginase protein was recombinantly expressed in Escherichia coli. Purified protein was then diluted in assay buffer (50 mM Tris pH 7.5, 50 mM NaCl, 1 mM manganese chloride, 0.05% bovine serum albumin to obtain a final Arginase concentration of 1.88 nM. Arginase solution (20 μL) or buffer alone (20 μL) were dispensed to wells of the assay plate using a BioRAPTR liquid dispenser (Beckman Coulter). Assay plates containing compound and ARG1 enzyme were incubated at room temperature for 30 minutes. Afterwards, 5 μL of 2.5 mM thioarginine (Cayman Chemicals) in assay buffer were added to each well of the assay plate using a BioRAPTR liquid dispenser. Plates were incubated at room temperature for 60 minutes and reactions were quenched by addition of 15 μL of […] 7-Diethylamine-3-(4-maleimidophenyl)-4-methylcoumarin (Sigma Chemical) in 70% ethanol. Plates were briefly shaken to mix and the fluorescence was measured in an Spectramax plate reader (Molecular Devices) with a 410 nm excitation wavelength and an 490 nm emission wavelength.
Potencies were calculated by […] to the four parameter logistic IC50 equation.

| Compound | pIC50 |
| --- | --- |
| CCN(CC)[C@H]1CN[C@H](C(=O)O)[C@@H]1CCCB(O)O [Example 28, (2S,3S,4R)-3-(3-boronopropyl)-4-(diethylamino)pyrrolidine-2-carboxylic acid] | 5.48 |
| CN[C@H]1CN[C@H](C(=O)O)[C@@H]1CCCB(O)O [Example 29, (2S,3R,4R)-3-(3-boronopropyl)-4-(methylamino)pyrrolidine-2-carboxylic acid] | 7.70 |
| CCN[C@H]1CN[C@H](C(=O)O)[C@@H]1CCCB(O)O [Example 30, (2S,3R,4R)-3-(3-boronopropyl)-4-(ethylamino)pyrrolidine-2-carboxylic acid] | 7.07 |
| NCCN[C@H]1CN[C@H](C(=O)O)[C@@H]1CCCB(O)O [Example 31, (2S,3R,4R)-4-((2-aminoethyl)amino)-3-(3-boronopropyl)pyrrolidine-2-carboxylic acid] | 8.17 |
| NCC1CN[C@H](C(=O)O)C1CCCB(O)O (stereo partly drawn) [Example 34, (2S)-4-(aminomethyl)-3-(3-boronopropyl)pyrrolidine-2-carboxylic acid] | 5.46 |
| CO[C@H]1CN[C@H](C(=O)O)[C@@H]1CCCB(O)O [Example 36, (2S,3S,4R)-3-(3-boronopropyl)-4-methoxypyrrolidine-2-carboxylic acid] | 7.34 |
| N[C@H](C(=O)N[C@H]1CN[C@H](C(=O)O)[C@@H]1CCCB(O)O)C1CCCC1 [Example 40, (2S,3R,4R)-4-((S)-2-amino-2-cyclopentylacetamido)-3-(3-boronopropyl)pyrrolidine-2-carboxylic acid] | 9.11 |

More lines, now with the values ahead:

| pIC50 | Compound |
| --- | --- |
| 8.68 | CC(C)[C@H](N)C(=O)N[C@H]1CN[C@H](C(=O)O)[C@@H]1CCCB(O)O [Example 37, (2S,3R,4R)-4-((S)-2-amino-3-methylbutanamido)-3-(3-boronopropyl)pyrrolidine-2-carboxylic acid] |
| 9.09 | CC(C)(C)[C@H](N)C(=O)N[C@H]1CN[C@H](C(=O)O)[C@@H]1CCCB(O)O [Example 38, (2S,3R,4R)-4-((S)-2-amino-3,3-dimethylbutanamido)-3-(3-boronopropyl)pyrrolidine-2-carboxylic acid] |
| 7.99 | CC(C)(O)[C@H](N)C(=O)N[C@H]1CN[C@H](C(=O)O)[C@@H]1CCCB(O)O [Example 39, (2S,3R,4R)-4-((S)-2-amino-3-hydroxy-3-methylbutanamido)-3-(3-boronopropyl)pyrrolidine-2-carboxylic acid] |
| 7.87 | C[C@H](N)C(=O)N[C@H]1CN[C@H](C(=O)O)[C@@H]1CCCB(O)O [Example 41, (2S,3R,4R)-4-((S)-2-aminopropanamido)-3-(3-boronopropyl)pyrrolidine-2-carboxylic acid] |
| 8.80 | CC(C)C[C@H](N)C(=O)N[C@H]1CN[C@H](C(=O)O)[C@@H]1CCCB(O)O [Example 42, (2S,3R,4R)-4-((S)-2-amino-4-methylpentanamido)-3-(3-boronopropyl)pyrrolidine-2-carboxylic acid] |
| 8.53 | CN[C@H](C(=O)N[C@H]1CN[C@H](C(=O)O)[C@@H]1CCCB(O)O)C(C)C [Example 43, (2S,3R,4R)-3-(3-boronopropyl)-4-((S)-3-methyl-2-(methylamino)butanamido)pyrrolidine-2-carboxylic acid] |
| 8.70 | CC[C@@H](C)[C@H](N)C(=O)N[C@H]1CN[C@H](C(=O)O)[C@@H]1CCCB(O)O [Example 44, (2S,3R,4R)-4-((2S,3R)-2-amino-3-methylpentanamido)-3-(3-boronopropyl)pyrrolidine-2-carboxylic acid] |
| 8.70 | CC[C@H](C)[C@H](N)C(=O)N[C@H]1CN[C@H](C(=O)O)[C@@H]1CCCB(O)O [Example 45, (2S,3R,4R)-4-((2S,3S)-2-amino-3-methylpentanamido)-3-(3-boronopropyl)pyrrolidine-2-carboxylic acid] |
| 7.45 | CC(C)[C@@H](N)C(=O)N[C@H]1CN[C@H](C(=O)O)[C@@H]1CCCB(O)O [Example 46, (2S,3R,4R)-4-((R)-2-amino-3-methylbutanamido)-3-(3-boronopropyl)pyrrolidine-2-carboxylic acid] |
